For 30 molecules, Ki results are on record in patent publication US20050059726A1, “Pyrrolidine-2-ones as factor xa inhibitors” (priority 2001, published 2005).

This experiment deals with human Factor Xa (Homo sapiens, UniProt P00742). The experiment in a line: In vitro assay for inhibition of Factor Xa (2), fluorogenic assay. It is filed as biochemical. As to conditions: substrate Rhodamine 110, bis-(CBZ-glycylglycyl-L-arginine amide 10 μM), Ki calculated from IC50. Here is the method: In Vitro Assay for Inhibition of Factor Xa (2)
Chain of human Factor Xa (P00742 235-488 limits assumed): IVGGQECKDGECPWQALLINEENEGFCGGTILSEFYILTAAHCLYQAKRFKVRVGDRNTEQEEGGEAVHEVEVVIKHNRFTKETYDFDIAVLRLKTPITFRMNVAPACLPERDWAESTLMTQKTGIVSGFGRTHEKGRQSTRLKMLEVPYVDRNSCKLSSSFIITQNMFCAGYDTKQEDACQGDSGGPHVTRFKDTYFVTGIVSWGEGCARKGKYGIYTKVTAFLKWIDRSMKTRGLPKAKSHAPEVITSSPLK
Chain of human Factor Xa (P00742 41-179 partner limits assumed): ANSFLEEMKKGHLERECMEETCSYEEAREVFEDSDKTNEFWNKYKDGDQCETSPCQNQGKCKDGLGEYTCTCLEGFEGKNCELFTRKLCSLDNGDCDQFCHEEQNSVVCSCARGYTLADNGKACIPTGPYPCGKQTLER
All other compounds of the present invention were tested for their Factor Xa inhibitory activity as determined in vitro by their ability to inhibit human Factor Xa in a fluorogenic assay, using Rhodamine 110, bis-(CBZ-glycylglycyl-L-arginine amide as the fluorogenic substrate. Compounds were diluted from a 10 mM stock solution in dimethylsulfoxide at appropriate concentrations. Assay was performed at room temperature using buffer consisting of: 50 mM Tris-HCl, 150 mM NaCl, 5 mM CaCl2, pH 7.4. containing human Factor Xa (final conc. Of 0.0003U.ml−1). Compound and enzyme were preincubated for 15 min prior to addition of the substrate (final conc. of 10 μM). The reaction was stopped after 3 hrs with the addition of H-D-PHE-PRO-ARG-Chloromethylketone. […] To obtain IC50 values the data were analysed using ActivityBase® and XLfit®.
Calculation of Ki values:
Ki=IC50/(1+[Substrate]/Km)
The Ki value for the above assay can be obtained by dividing the IC50 value by 1.6.

By Ki is commonly meant a dissociation constant, usually derived from enzyme kinetics or from competition with a known ligand.

Turning to `CS(=O)(=O)c1ccccc1-c1ccc(N2CC[C@H](N(CCN3CCOCC3)S(=O)(=O)/C=C/c3ccc(Cl)s3)C2=O)c(F)c1` [Example 45, (E)-2-(5-Chlorothien-2-yl)-N-{(3S)-1-[3-fluoro-2′-(methylsulfonyl)-1,1′-biphenyl-4-yl]-2-oxopyrrolidin-3-yl}-N-(2-morpholin-4-ylethyl)ethenesulfonamide], the Ki was < 10 nM. Regarding `CS(=O)(=O)c1ccccc1-c1ccc(N2CC[C@H](N(CC(N)=O)S(=O)(=O)/C=C/c3ccc(Cl)s3)C2=O)c(F)c1` [Example 46], the Ki is < 10 nM. In the case of `CC(C)(C)OC(=O)CN([C@H]1CCN(c2ccc(-c3ccccc3S(C)(=O)=O)cc2F)C1=O)S(=O)(=O)/C=C/c1ccc(Cl)s1` [Example 47, tert-Butyl ({[(E)-2-(5-chlorothien-2-yl)ethenyl]sulfonyl}{(3S)-1-[3-fluoro-2′-(methylsulfonyl)-1,1′-biphenyl-4-yl]-2-oxopyrrolidin-3-yl}amino)acetate], the Ki was < 10 nM. In the case of `CS(=O)(=O)c1ccccc1-c1ccc(N2CC[C@H](N(CC(=O)O)S(=O)(=O)/C=C/c3ccc(Cl)s3)C2=O)nc1` [Example 48, {[(E)-2-(5-Chlorothien-2-yl)(ethenyl]sulfonyl}((3S)-1-{5-[2-(methylsulfonyl)phenyl]pyridin-2-yl}-2-oxopyrrolidin-3-yl)amino]acetic Acid], the Ki is < 10 nM. Turning to `CS(=O)(=O)c1ccccc1-c1ccc(N2CC[C@H](N(CC(=O)O)S(=O)(=O)/C=C/c3ccc(Cl)s3)C2=O)c(F)c1` [Example 49], the Ki is < 10 nM. In the case of `NC(=O)c1cccc(-c2ccc(N3CC[C@H](NS(=O)(=O)c4ccc5cc(Cl)ccc5c4)C3=O)c(F)c2)c1` [Example 50, 4′-[(S)-3-(6-Chloro-naphthalene-2-sulphonylamino)-2-oxo-pyrrolidin-1-yl]-3′-fluoro-biphenyl-3-carboxylic Acid Amide], the Ki was < 10 nM. Regarding `CSc1ccccc1-c1cnc(N2CC[C@H](NS(=O)(=O)c3ccc4cc(Cl)ccc4c3)C2=O)s1` [Example 51, 6-Chloro-naphthalene-2-sulphonic Acid [(S)-1-[5-(2-methylsulphanylphenyl)-thiazol-2-yl]-2-oxo:pyrrolidin-3-yl]amide], the Ki was < 200 nM. For `CS(=O)(=O)c1ccccc1-c1ccc(N2CC[C@H](NS(=O)(=O)c3cccc(CN)c3)C2=O)c(F)c1` [Example 53, 3-(Aminomethyl)-N-{(3S)-1-[3-fluoro-2′-(methylsulfonyl)-1,1′-biphenyl-4-yl]-2-oxopyrrolidin-3-yl}benzenesulfonamide], the Ki was < 20 nM. Regarding `O=C1[C@@H](NS(=O)(=O)c2ccc3cc(Cl)ccc3c2)CCN1c1ccc(-c2ccncc2)cc1F` [Example 55, 6-Chloro-N-[(3S)-1-(2-fluoro-4-pyridin-4-ylphenyl)-2-oxopyrrolidin-3-yl]naphthalene-2-sulfonamide], the Ki is < 10 nM. Turning to `COc1ncc(-c2ccc(N3CC[C@H](NS(=O)(=O)c4ccc5cc(Cl)ccc5c4)C3=O)c(F)c2)c(OC)n1` [Example 56, 6-Chloro-N-{(3S)-1-[4-(2,4-dimethoxypyrimidin-5-yl)-2-fluorophenyl]oxopyrrolidin-3-yl}naphthalene-2-sulfonamide], the Ki is < 200 nM.

Turning to `O=C1[C@@H](NS(=O)(=O)c2ccc3cc(Cl)ccc3c2)CCN1c1ccc(-c2cccnc2)cc1F` [Example 57, 6-Chloro-N-[(3S)-1-(2-fluoro-4-pyridin-3ylphenyl)-2-oxopyrrolidin-3-yl]naphthalene-2-sulfonamide], the Ki was < 10 nM. As for `COc1ccc(-c2ccc(N3CC[C@H](NS(=O)(=O)c4ccc5cc(Cl)ccc5c4)C3=O)c(F)c2)cn1` [Example 58, 6-Chloro-N-{(3S)-1-[2-fluoro-4-(6-methoxypyridin-3-yl)phenyl]-2-oxopyrrolidin-3-yl}naphthalene-2-sulfonamide], the figure is < 200 nM; as for `CSc1ccc(-c2ccc(N3CC[C@H](NS(=O)(=O)c4ccc5cc(Cl)ccc5c4)C3=O)c(F)c2)cn1` [Example 60, 6-Chloro-N-((3S)-1-{2-fluoro-4-[6-(methylthio)pyridin-3-yl]phenyl}-2-oxopyrrolidin-3-yl)naphthalene-2-sulfonamide], < 200 nM.

In the case of `O=C1[C@@H](NS(=O)(=O)c2ccc3cc(Cl)ccc3c2)CCN1c1ccc(-c2cncc(Br)c2)cc1F` [Example 61, N-{(3S)-1-[4-(5-Bromopyridin-3-yl)-2-fluorophenyl]-2-oxopyrrolidin-3-yl}-6-chloronaphthalene-2-sulfonamide], the Ki was < 200 nM. For the molecule `COc1ccncc1-c1ccc(N2CC[C@H](NS(=O)(=O)c3ccc4cc(Cl)ccc4c3)C2=O)c(F)c1` [Example 62, 6-Chloro-N-{(3S)-1-[2-fluoro-4-(4-methoxypyridin-3-yl)phenyl]-2-oxopyrrolidin-3-yl}naphthalene-2-sulfonamide], the Ki was < 10 nM. With `O=C1[C@@H](NS(=O)(=O)c2ccc3cc(Cl)ccc3c2)CCN1c1ccc(-c2cncnc2)cc1F` [Example 63, 6-Chloro-N-[(3S)-1-(2-fluoro-4-pyrimidin-5-ylphenyl)-2-oxopyrrolidin-3-yl]naphthalene-2-sulfonamide] the figure was < 200 nM; with `NCc1cccc(-c2ccc(N3CC[C@H](NS(=O)(=O)c4ccc5cc(Cl)ccc5c4)C3=O)c(F)c2)c1` [Example 64], < 10 nM. Consider `O=C1[C@@H](NS(=O)(=O)c2ccc3cc(Cl)ccc3c2)CCN1c1ccc(-c2ccoc2)cc1F` [Example 65, 6-Chloro-N-{(3S)-1-[2-fluoro-4-(3-furyl)phenyl]-2-oxopyrrolidin-3-}naphthalene-2-sulfonamide], for which the Ki was < 200 nM.

With `O=C1[C@@H](NS(=O)(=O)c2ccc3cc(Cl)ccc3c2)CCN1c1ccc(-c2ccsc2)cc1F` [Example 67, 6-Chloro-N-[(3S)-1-(2-fluoro-4-thien-3-ylphenyl)-2-oxopyrrolidin-3-yl]naphthalene-2-sulfonamide], the Ki was < 200 nM.

As to `Cc1ccc(-c2ccc(N3CC[C@H](NS(=O)(=O)c4ccc5cc(Cl)ccc5c4)C3=O)c(F)c2)s1` [Example 68, 6-Chloro-N-{(3S)-1-[2-fluoro-4-(5-methylthien-2-yl)phenyl]-2-oxopyrrolidin-3-yl}naphthalene-2-sulfonamide], the Ki is < 200 nM. As to `Cc1cscc1-c1ccc(N2CC[C@H](NS(=O)(=O)c3ccc4cc(Cl)ccc4c3)C2=O)c(F)c1` [Example 69, 6-Chloro-N-{(3S)-1-[2-fluoro-4-(4-methylthien-3-yl)phenyl]-2-oxopyrrolidin-3-yl}naphthalene-2-sulfonamide], the Ki is < 200 nM. Regarding `O=Cc1ccsc1-c1ccc(N2CC[C@H](NS(=O)(=O)c3ccc4cc(Cl)ccc4c3)C2=O)c(F)c1` [Example 70, 6-Chloro-N-{(3S)-1-[2-fluoro-4-(3-formylthien-2-yl)phenyl]-2-oxopyrrolidin-3-yl}naphthalene-2-sulfonamide], the Ki is < 20 nM. Take `O=C1[C@@H](NS(=O)(=O)c2ccc3cc(Cl)ccc3c2)CCN1c1ccc(-c2ccc(Cl)s2)cc1F` [Example 71, 6-Chloro-N-{(3S)-1-[4-(5-chlorothien-2-yl)-2-fluorophenyl]-2-oxopyrrolidin-3-yl}naphthalene-2-sulfonamide]: the Ki was < 200 nM. For `Cc1noc(C)c1-c1ccc(N2CC[C@H](NS(=O)(=O)c3ccc4cc(Cl)ccc4c3)C2=O)c(F)c1` [Example 72, 6-Chloro-N-{(3S)-1-[4-(3,5-dimethylisoxazol-4-yl)-2-fluorophenyl]-2-oxopyrrolidin-3-yl}naphthalene-2-sulfonamide], the Ki was < 20 nM. `O=C1[C@@H](NS(=O)(=O)c2ccc3cc(Cl)ccc3c2)CCN1c1ccc(-c2ccccc2)cc1F` [Example 74, 6-Chloro-N-[(3S)-1-(3-fluoro-1,1′-biphenyl-4-yl)-2-oxopyrrolidin-3-yl]naphthalene-2-sulfonamide]: the Ki was < 200 nM. With `O=C1[C@@H](NS(=O)(=O)c2ccc3cc(Cl)ccc3c2)CCN1c1ccc(-c2cc[n+]([O-])cc2)cc1F` [Example 76, 6-Chloro-N-{(3S)-1-[2-fluoro-4-(1-oxidopyridin-4-yl)phenyl]-2-oxopyrrolidin-3-yl}naphthalene-2-sulfonamide], the Ki is < 20 nM.

For the molecule `Cn1ccnc1-c1ccc(N2CC[C@H](NS(=O)(=O)c3ccc4cc(Cl)ccc4c3)C2=O)c(F)c1` [Example 77, 6-Chloro-N-{(3S)-1-[2-fluoro-4-(1-methyl-1H-imidazol-2-yl)phenyl]-2-oxopyrrolidin-3-yl}naphthalene-2-sulfonamide], the inhibition constant Ki was < 10 nM. On to `O=C1[C@@H](NS(=O)(=O)c2ccc3cc(Cl)ccc3c2)CCN1c1ccc(-c2cccnc2Cl)cc1F` [Example 78, 6-Chloro-N-{(3S)-1-[4-(2-chloropyridin-3-yl)-2-fluorophenyl]-2-oxopyrrolidin-3-yl}naphthalene-2-sulfonamide], for which the Ki was < 10 nM.

For `N#Cc1ncccc1-c1ccc(N2CC[C@H](NS(=O)(=O)c3ccc4cc(Cl)ccc4c3)C2=O)c(F)c1` [Example 79, 6-Chloro-N-{(3S)-1-[4-(2-cyanopyridin-3-yl)-2-fluorophenyl-]-2-oxopyrrolidin-3-yl}naphthalene-2-sulfonamide], the Ki was < 10 nM. For the molecule `O=C1[C@@H](NS(=O)(=O)/C=C/c2ccc(Cl)s2)CCN1c1ccc(-c2ccncc2Cl)cc1F` [Example 80, (E)-N-{(3S)-1-[4-(3-Chloropyridin-4-yl)-2-fluorophenyl]-2-oxopyrrolidin-3-yl}-2-(5-chlorothien-2-yl)ethenesulfonamide], the Ki is < 10 nM.
